# Results taken from US20250051356A1, “RIFABUTIN ANALOGS FOR THE TREATMENT OF DISEASE” (priority 2021, published 2025).
# Legend:
# Format in all cases: cell-based
# [1] = tested on: S. aureus (UAMS-1625 strain); test: MIC by broth microdilution against S. aureus; conditions: Staphylococcus aureus, read-out: MIC S. aureus
# [2] = tested on: A. baumannii (HUMC1 strain); test: MIC by broth microdilution against A. baumannii in RPMI + 10% FCS; conditions: Acinetobacter baumannii; HUMC1 strain; RPMI + 10% FCS; read-out: MIC A. baumannii
# [3] = tested on: M. abscessus subsp. abscessus ATCC 19977; test: MIC against M. abscessus in Middlebrook 7H9 + ADC; conditions: Mycobacteroides abscessus, ATCC19977; ATCC 19977; 7H9 + ADC; read-out: MIC M. abscessus
# M. kansasii (ATCC 12478) = test: MIC against M. kansasii in CAMHB + ADC; conditions: Mycobacterium kansasii, ATCC12478, read-out: MIC M. kansasii
# M. avium (ATCC 25291) = test: MIC against M. avium in CAMHB + ADC; conditions: Mycobacterium avium, ATCC25291; ATCC 25291; CAMHB + ADC (5%); read-out: MIC M. avium
Structure (SMILES),MIC [1] [µg/mL],MIC [2] [µg/mL],MIC [3] [µg/mL],MIC (M. kansasii (ATCC 12478)) [µg/mL],MIC (M. avium (ATCC 25291)) [µg/mL]
CO[C@H]1/C=C/O[C@@]2(C)Oc3c(C)c(O)c4c(c3C2=O)C2=NC3(CCN(CC(C)C)CC3)NC2=C(NC(=O)/C(C)=C\C=C\[C@H](C)[C@H](O)[C@@H](C)[C@@H](O)[C@@H](C)[C@H](OC(=O)CC(=O)N2CCc3[nH]c5ccccc5c3C2)[C@@H]1C)C4=O [Compound 65],0.125,0.016,0.5,–,–
CO[C@H]1/C=C/O[C@@]2(C)Oc3c(C)c(O)c4c(c3C2=O)C2=NC3(CCN(CC(C)C)CC3)NC2=C(NC(=O)/C(C)=C\C=C\[C@H](C)[C@H](O)[C@@H](C)[C@@H](O)[C@@H](C)[C@H](OC(=O)CCC(=O)NCCN(C)C)[C@@H]1C)C4=O [Compound 72],0.06,≤ 0.002,1,–,–
CO[C@H]1/C=C/O[C@@]2(C)Oc3c(C)c(O)c4c(c3C2=O)C2=NC3(CCN(CC(C)C)CC3)NC2=C(NC(=O)/C(C)=C\C=C\[C@H](C)[C@H](O)[C@@H](C)[C@@H](O)[C@@H](C)[C@H](OC(=O)CCC(=O)OCC2CCCN(C)C2)[C@@H]1C)C4=O (some centres unmarked) [Compound 73],0.06,≤ 0.002,1,–,–
CO[C@H]1/C=C/O[C@@]2(C)Oc3c(C)c(O)c4c(c3C2=O)C2=NC3(CCN(CC(C)C)CC3)NC2=C(NC(=O)/C(C)=C\C=C\[C@H](C)[C@H](O)[C@@H](C)[C@@H](O)[C@@H](C)[C@H](OC(=O)CCCC(=O)OCC2CCCN(C)C2)[C@@H]1C)C4=O (some centres unmarked) [Compound 74],0.06,≤ 0.002,1,–,–
CO[C@H]1/C=C/O[C@@]2(C)Oc3c(C)c(O)c4c(c3C2=O)C2=NC3(CCN(CC(C)C)CC3)NC2=C(NC(=O)/C(C)=C\C=C\[C@H](C)[C@H](O)[C@@H](C)[C@@H](O)[C@@H](C)[C@H](OC(=O)CCCC(=O)OC2CCN(C)C2)[C@@H]1C)C4=O (some centres unmarked) [Compound 77],0.06,≤ 0.002,0.5,–,–
CO[C@H]1/C=C/OC2(C)Oc3c(C)c(O)c4c(c3C2=O)C2=NC3(CCN(CC(C)C)CC3)NC2=C(NC(=O)/C(C)=C\C=C\[C@H](C)[C@H](O)[C@@H](C)[C@@H](O)[C@@H](C)[C@H](OC(=O)CC(=O)N2CCn3c2nc2ccccc23)[C@@H]1C)C4=O (some centres unmarked) [Compound 89],0.125,0.016,0.5,–,–
CO[C@H]1/C=C/O[C@@]2(C)Oc3c(C)c(O)c4c(c3C2=O)C2=NC3(CCN(CC(C)C)CC3)NC2=C(NC(=O)/C(C)=C\C=C\[C@H](C)[C@H](O)[C@@H](C)[C@@H](O)[C@@H](C)[C@H](OC(=O)CC(=O)N2CCN(C3CN(C)C3)CC2)[C@@H]1C)C4=O [Compound 111],0.125,0.06,0.5,–,–
CO[C@H]1/C=C/O[C@@]2(C)Oc3c(C)c(O)c4c(c3C2=O)C2=NC3(CCN(CC(C)C)CC3)NC2=C(NC(=O)/C(C)=C\C=C\[C@H](C)[C@H](O)[C@@H](C)[C@@H](O)[C@@H](C)[C@H](OC(=O)CC(=O)N2CCN(C3CCN(C)CC3)CC2)[C@@H]1C)C4=O [Compound 112],0.125,0.004,1,–,–
CO[C@H]1/C=C/O[C@@]2(C)Oc3c(C)c(O)c4c(c3C2=O)C2=NC3(CCN(CC(C)C)CC3)NC2=C(NC(=O)/C(C)=C\C=C\[C@H](C)[C@H](O)[C@@H](C)[C@@H](O)[C@@H](C)[C@H](OC(=O)CC(=O)N2CCN(CCN(C)C)CC2)[C@@H]1C)C4=O [Compound 113],0.06,0.06,0.5,–,–
CO[C@H]1/C=C/O[C@@]2(C)Oc3c(C)c(O)c4c(c3C2=O)C2=NC3(CCN(CC(C)C)CC3)NC2=C(NC(=O)/C(C)=C\C=C\[C@H](C)[C@H](O)[C@@H](C)[C@@H](O)[C@@H](C)[C@H](OC(=O)CC(=O)N2CCN(CCN3CCCCC3)CC2)[C@@H]1C)C4=O [Compound 114],0.125,≤ 0.002,0.5,–,–
CO[C@H]1/C=C/O[C@@]2(C)Oc3c(C)c(O)c4c(c3C2=O)C2=NC3(CCN(CC(C)C)CC3)NC2=C(NC(=O)/C(C)=C\C=C\[C@H](C)[C@H](O)[C@@H](C)[C@@H](O)[C@@H](C)[C@H](OC(=O)CC(=O)N2CCN(CCN3CCOCC3)CC2)[C@@H]1C)C4=O [Compound 115],0.06,≤ 0.002,0.5,–,–
CO[C@H]1/C=C/O[C@@]2(C)Oc3c(C)c(O)c4c(c3C2=O)C2=NC3(CCN(CC(C)C)CC3)NC2=C(NC(=O)/C(C)=C\C=C\[C@H](C)[C@H](O)[C@@H](C)[C@@H](O)[C@@H](C)[C@H](OC(=O)CC(=O)N2CCCN(c3ccncc3)CC2)[C@@H]1C)C4=O [Compound 121],0.125,≤ 0.002,0.25,0.125,2
